Data: article PMC5270475, “Structural Characterization and Ligand/Inhibitor Identification Provide Functional Insights into the Mycobacterium tuberculosis Cytochrome P450 CYP126A1” (The Journal of Biological Chemistry, 2016)

biological target: T1, CYP126A1 (Mycobacterium tuberculosis, UniProt P9WPN9); assay: UV-visible absorbance titration (heme Soret shift); type: binding; details: read-out: Kd
T1 construct: gene cyp126
T1 sequence (P9WPN9 whole entry): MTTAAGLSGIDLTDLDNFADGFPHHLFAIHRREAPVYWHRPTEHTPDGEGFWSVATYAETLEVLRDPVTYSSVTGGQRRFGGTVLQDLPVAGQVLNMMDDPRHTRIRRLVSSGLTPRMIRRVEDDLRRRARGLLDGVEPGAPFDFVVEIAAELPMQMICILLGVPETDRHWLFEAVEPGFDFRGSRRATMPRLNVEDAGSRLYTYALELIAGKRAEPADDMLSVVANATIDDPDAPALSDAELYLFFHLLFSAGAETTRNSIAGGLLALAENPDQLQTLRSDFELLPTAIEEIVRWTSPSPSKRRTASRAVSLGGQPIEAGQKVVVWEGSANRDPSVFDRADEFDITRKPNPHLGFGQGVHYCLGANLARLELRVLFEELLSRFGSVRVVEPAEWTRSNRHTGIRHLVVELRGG

Question: For `COc1ccc(-c2noc(CN(C(=O)Cc3ccc([N+](=O)[O-])cc3)C(C)C)n2)cc1` [compound 1, N-isopropyl-N-((3-(4-methoxyphenyl)-1,2,4-oxadiazol-5-yl)methyl)-2-(4-nitrophenyl)acetamide], which Kd is on record?
Answer: Its Kd is 18.3 ± 1.3 µM.

Question: How did the Kd turn out when `O=C1CCCC2Oc3c(cc(NS(=O)(=O)c4ccc([N+](=O)[O-])cc4)c4ccccc34)C12` (stereo not drawn) [compound 2, Compound 2] was run?
Answer: Its Kd is 2.85 ± 0.15 µM.

Question: Which Kd does the source give for `Cc1ccc(NC(=O)c2cccc3nc4ccccc4nc23)cc1` [compound 3, Compound 3] here?
Answer: The Kd was 56.1 ± 2.2 µM.

Question: `O=C1CC(N2CCN(Cc3ccc4c(c3)OCO4)CC2)C(=O)N1Cc1ccc(Cl)cc1` (stereo not drawn) [compound 4, 3-(4-(benzo[d][1,3]dioxol-5-ylmethyl)piperazin-1-yl)-1-(4-chlorobenzyl)pyrrolidine-2,5-dione] was tested. Which Kd did it give?
Answer: Its Kd is 65.2 ± 6.6 µM.

Question: For `Cc1cccc(CSc2ncc(Cl)c(C(=O)Nc3nnc(C)s3)n2)c1` [compound 5, Compound 5], which Kd is on record?
Answer: Its Kd is 6.15 ± 0.31 µM.

Question: How did the Kd turn out when `O=C(Nc1nc2ccc(F)cc2s1)c1nc(SCc2ccccc2F)ncc1Cl` [compound 6, Compound 6] was run?
Answer: The Kd was 25.3 ± 0.5 µM.
